These results are taken from paper PMC5224880, “Discovery and Molecular Basis of a Diverse Set of Polycomb Repressive Complex 2 Inhibitors Recognition by EED” (PLoS ONE, 2017).

Experiment [1] has as its target T1, His-EED (residues 1–441) (Homo sapiens, UniProt O75530).
T1 construct: 30 nM His-EED (residues 1–441) protein
Briefly: biochemical. To be noted: 30 nM His-EED, 15 nM biotin-H3K27me3 (19–33) peptide; read-out: IC50, EED-H3K27me3 AlphaScreen competition binding assay. (In general: Bead proximity is the source of the signal in Alpha formats.)
Protocol: The data were then fit to a dose response equation using the program Helios (Novartis) to determine the IC50 values.
Each compound was counterscreened to determine if it interfered with the AlphaScreen beads. Compounds were diluted as described in the preceding section, and the assay was performed by adding 12 μL of 10 nM Biotin-miniPEG-His6 peptide in the above buffer and incubated for 20 min at room temperature prior to addition of the acceptor and donor beads. The plates were then incubated for 1 h at room temperature in the dark before being read on the EnVision system (Perkin Elmer).
In addition to the enzymatic assay, we also developed a binding assay to measure the interaction between His-tagged recombinant EED protein and a biotinylated H3K27me3 peptide using the Amplified Luminescence Proximity Homogenous Assay Screen (AlphaScreen) [33, 34]. Binding of Biotin-H3K27me3 peptide to His-EED protein brings the streptavidin-coated donor beads and anti-His antibody coated acceptor beads into close proximity and thus a luminescent signal is produced. Disruption of EED-H3K27me3 interaction by H3K27me3 pocket binders will result in the signal reduction.

The target in experiment [2] is SMYD2 (Homo sapiens, UniProt Q9NRG4). In words: HMT panel selectivity: SMYD2. It counts as biochemical. On the procedure: (§1) Note: for EZH2, EZH2/EED/SUZ12/RBAP48/AEBP2 was used in the assay; for EZH1, EZH1/EED/SUZ12/RBAP48/AEBP2 was used in the assay; for MLL, MLL/WDR5/RBBP5/ASH2L/ was use in the assay. a, H3K27me0 peptide was used as substrate for both EZH2 and EZH1 activity; b, H3K27me1 peptide was used as substrate for both EZH2 and EZH1 activity. All HMT reactions were performed as described previously. ref: Proc Natl Acad Sci U S A. 2012 Dec 26;109(52):21360-5.
Sequence of SMYD2 (Q9NRG4 whole entry, species assumed): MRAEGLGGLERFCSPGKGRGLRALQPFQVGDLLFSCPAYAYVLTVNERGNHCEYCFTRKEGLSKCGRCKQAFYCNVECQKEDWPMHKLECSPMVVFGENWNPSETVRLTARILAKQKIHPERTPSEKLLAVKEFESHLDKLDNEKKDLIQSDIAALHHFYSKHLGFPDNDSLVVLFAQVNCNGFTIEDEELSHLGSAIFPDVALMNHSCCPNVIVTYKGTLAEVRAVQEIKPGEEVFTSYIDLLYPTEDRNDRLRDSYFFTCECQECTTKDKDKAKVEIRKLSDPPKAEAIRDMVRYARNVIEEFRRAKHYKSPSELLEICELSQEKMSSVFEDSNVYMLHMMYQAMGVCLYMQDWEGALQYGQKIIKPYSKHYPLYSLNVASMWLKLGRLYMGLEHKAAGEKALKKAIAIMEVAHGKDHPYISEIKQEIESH

Experiment [3] concerns the target T2, G9a (Homo sapiens, UniProt Q96KQ7).
T2 sequence (Q96KQ7 1-1210): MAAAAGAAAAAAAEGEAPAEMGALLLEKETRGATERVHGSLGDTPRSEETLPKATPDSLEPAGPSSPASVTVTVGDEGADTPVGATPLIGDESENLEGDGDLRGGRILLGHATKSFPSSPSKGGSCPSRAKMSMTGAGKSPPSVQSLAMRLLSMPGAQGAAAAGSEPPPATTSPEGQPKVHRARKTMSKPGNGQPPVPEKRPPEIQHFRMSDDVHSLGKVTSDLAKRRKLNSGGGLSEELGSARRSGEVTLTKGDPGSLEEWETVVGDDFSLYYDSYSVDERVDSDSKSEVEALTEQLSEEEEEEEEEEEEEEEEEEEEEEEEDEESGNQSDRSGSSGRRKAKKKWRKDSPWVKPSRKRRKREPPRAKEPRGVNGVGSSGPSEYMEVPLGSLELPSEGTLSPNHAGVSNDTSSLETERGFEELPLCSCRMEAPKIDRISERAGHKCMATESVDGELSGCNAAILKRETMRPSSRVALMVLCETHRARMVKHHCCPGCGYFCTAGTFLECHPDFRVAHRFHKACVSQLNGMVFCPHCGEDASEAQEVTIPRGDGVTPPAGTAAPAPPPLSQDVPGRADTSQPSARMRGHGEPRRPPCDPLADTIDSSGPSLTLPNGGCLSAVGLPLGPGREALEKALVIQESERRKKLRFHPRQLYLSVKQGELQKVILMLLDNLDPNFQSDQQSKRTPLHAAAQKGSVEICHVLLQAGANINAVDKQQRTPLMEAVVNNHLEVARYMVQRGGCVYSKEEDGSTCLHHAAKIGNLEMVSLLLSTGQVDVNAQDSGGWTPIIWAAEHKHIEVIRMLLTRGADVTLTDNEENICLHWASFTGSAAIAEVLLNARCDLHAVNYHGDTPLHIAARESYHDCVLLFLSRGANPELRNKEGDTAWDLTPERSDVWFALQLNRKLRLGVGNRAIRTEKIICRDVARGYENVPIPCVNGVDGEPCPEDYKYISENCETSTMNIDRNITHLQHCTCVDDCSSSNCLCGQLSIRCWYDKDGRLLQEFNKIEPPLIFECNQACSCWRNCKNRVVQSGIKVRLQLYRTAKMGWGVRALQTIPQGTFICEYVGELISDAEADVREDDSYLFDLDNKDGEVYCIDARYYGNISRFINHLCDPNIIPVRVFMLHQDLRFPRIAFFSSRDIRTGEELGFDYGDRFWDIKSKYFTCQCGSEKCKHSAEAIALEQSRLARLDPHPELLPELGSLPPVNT
Briefly: HMT panel selectivity: G9a. It counts as biochemical. As for the experimental part: as §1

For experiment [4], the target named is NSD1 (Homo sapiens, UniProt Q96L73). In words: HMT panel selectivity: NSD1. It counts as biochemical. On the procedure:
as §1

Experiment [5] has as its target T3, CARM1 (Homo sapiens, UniProt Q86X55).
T3 sequence (Q86X55 1-608): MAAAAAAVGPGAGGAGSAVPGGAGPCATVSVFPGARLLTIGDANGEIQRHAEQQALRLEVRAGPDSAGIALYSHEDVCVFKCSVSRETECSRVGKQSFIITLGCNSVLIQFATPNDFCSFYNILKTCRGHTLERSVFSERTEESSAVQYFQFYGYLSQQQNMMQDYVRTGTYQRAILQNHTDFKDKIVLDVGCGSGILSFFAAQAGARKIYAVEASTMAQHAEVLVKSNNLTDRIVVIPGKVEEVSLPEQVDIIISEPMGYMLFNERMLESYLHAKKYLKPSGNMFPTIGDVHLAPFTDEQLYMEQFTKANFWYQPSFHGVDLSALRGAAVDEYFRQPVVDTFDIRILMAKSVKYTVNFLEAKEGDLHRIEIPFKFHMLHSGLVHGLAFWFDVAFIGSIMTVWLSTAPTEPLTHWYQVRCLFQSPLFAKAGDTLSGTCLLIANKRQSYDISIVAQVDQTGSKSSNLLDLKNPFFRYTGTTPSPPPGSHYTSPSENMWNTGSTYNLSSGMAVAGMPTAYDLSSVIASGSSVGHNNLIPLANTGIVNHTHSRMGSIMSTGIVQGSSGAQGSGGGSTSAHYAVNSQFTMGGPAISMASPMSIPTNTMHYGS
In words: HMT panel selectivity: CARM1. It counts as biochemical. As for the experimental part: as §1

Experiment [6] has as its target PRMT5/MEP50 (Homo sapiens, UniProt O14744). In words: HMT panel selectivity: PRMT5/MEP50. It counts as biochemical. As for the experimental part: as §1
Experiment [7] concerns the target PRMT8 (Homo sapiens, UniProt Q9NR22). Briefly: HMT panel selectivity: PRMT8. It counts as biochemical. On the procedure: as §1
The target in experiment [8] is DNMT1 (Homo sapiens, UniProt P26358). Briefly: HMT panel selectivity: DNMT1. It counts as biochemical. On the procedure: as §1
Sequence of DNMT1 (P26358 whole entry, species assumed): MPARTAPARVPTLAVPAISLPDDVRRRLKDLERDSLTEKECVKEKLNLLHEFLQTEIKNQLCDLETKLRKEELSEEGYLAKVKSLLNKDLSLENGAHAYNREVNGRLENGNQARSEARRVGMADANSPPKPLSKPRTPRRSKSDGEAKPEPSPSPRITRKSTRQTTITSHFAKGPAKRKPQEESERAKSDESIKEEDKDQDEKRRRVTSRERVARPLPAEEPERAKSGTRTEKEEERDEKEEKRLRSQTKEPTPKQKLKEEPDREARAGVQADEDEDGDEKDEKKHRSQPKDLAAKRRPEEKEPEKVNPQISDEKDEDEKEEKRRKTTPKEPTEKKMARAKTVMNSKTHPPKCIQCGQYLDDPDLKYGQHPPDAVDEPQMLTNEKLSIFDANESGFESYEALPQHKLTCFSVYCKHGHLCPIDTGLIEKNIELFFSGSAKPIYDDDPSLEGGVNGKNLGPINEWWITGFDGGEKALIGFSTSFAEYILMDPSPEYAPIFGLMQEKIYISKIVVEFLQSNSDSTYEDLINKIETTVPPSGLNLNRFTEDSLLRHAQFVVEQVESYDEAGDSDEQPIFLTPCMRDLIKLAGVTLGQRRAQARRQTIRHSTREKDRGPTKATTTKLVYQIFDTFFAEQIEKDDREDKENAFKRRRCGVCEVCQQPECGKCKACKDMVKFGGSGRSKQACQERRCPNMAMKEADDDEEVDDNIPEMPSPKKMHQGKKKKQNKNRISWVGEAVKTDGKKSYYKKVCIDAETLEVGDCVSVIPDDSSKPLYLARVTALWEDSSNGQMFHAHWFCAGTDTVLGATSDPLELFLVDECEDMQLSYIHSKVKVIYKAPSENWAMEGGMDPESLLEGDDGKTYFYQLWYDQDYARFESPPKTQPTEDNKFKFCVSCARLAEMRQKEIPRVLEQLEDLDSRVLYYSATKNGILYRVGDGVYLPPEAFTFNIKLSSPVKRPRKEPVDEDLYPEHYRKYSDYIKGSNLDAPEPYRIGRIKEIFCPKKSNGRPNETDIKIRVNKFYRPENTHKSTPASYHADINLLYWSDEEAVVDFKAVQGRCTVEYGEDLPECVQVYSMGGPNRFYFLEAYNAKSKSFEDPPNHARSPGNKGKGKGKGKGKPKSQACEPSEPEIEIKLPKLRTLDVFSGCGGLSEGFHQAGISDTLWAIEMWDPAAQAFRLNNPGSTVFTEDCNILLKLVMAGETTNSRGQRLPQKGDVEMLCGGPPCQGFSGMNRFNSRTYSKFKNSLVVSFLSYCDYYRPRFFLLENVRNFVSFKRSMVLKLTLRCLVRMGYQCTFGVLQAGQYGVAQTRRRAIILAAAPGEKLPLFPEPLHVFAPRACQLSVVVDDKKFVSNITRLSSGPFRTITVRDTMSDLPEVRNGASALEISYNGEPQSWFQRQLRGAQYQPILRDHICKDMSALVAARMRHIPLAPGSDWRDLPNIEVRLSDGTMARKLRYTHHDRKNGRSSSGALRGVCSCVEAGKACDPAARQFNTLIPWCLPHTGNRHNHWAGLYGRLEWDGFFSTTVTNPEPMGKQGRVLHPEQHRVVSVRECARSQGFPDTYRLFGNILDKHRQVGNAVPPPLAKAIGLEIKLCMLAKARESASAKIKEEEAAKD
The target in experiment [9] is recombinant EED (Homo sapiens, UniProt O75530). Briefly: ITC binding analysis. To be noted: 25°C. As for the experimental part: ITC experiments were performed on an Auto ITC200 (Microcal) at 25°C. The ITC sample cell was filled with 10 μM PRC2 in titration buffer containing 25 mM HEPES pH8.0, 150 mM NaCl, and 1% DMSO. 40 μL of 100 μM compounds in the same titration buffer was loaded in the ITC syringe. 19 injections, each of 2 μL, was injected into the ITC cell at 150 s intervals. Binding constant (K) and binding enthalpy (ΔH) determinations were obtained from the fit to the experimental data using a one-site model.
Sequence of recombinant EED (O75530 76-441 limits assumed): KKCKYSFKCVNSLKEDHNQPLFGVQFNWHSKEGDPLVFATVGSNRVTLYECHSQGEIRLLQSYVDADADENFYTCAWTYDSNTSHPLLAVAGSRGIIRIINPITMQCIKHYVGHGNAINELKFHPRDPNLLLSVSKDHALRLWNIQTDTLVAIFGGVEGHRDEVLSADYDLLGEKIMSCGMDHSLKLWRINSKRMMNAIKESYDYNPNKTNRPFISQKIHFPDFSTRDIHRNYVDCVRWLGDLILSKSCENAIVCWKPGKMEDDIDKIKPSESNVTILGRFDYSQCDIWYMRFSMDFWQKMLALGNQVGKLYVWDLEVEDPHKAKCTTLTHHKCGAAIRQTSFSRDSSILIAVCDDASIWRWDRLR
Both isothermal calorimetry (ITC) and surface plasmon resonance (SPR) assay were established for this purpose.

Sequence of PRMT5/MEP50 (O14744 whole entry, species assumed): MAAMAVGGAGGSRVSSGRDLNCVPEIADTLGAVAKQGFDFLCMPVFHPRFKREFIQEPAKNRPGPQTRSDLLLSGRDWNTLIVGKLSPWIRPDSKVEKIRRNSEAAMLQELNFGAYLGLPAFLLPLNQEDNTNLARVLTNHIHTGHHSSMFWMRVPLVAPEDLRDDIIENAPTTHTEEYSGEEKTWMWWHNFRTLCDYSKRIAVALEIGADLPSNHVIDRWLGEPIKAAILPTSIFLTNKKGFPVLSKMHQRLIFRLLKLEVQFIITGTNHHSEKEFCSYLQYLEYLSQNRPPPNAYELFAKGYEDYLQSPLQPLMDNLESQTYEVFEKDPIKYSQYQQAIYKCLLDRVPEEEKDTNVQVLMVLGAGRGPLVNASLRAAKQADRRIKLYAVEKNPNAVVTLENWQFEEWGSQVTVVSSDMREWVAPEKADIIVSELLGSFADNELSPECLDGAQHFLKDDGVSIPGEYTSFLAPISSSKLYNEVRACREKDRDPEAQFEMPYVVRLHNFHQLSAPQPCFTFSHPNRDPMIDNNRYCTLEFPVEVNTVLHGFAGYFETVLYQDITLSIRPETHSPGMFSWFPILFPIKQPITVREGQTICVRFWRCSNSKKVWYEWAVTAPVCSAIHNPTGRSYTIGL
Sequence of PRMT5/MEP50 (Q9BQA1 whole entry partner, species assumed): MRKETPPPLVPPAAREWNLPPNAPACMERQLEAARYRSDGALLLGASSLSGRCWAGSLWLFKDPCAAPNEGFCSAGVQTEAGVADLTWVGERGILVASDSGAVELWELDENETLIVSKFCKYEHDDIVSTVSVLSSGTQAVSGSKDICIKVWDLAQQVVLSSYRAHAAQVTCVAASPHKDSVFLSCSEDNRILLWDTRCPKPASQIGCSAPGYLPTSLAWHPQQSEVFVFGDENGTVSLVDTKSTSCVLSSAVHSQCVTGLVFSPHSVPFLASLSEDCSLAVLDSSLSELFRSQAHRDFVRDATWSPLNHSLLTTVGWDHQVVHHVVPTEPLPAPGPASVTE
Sequence of PRMT8 (Q9NR22 whole entry, species assumed): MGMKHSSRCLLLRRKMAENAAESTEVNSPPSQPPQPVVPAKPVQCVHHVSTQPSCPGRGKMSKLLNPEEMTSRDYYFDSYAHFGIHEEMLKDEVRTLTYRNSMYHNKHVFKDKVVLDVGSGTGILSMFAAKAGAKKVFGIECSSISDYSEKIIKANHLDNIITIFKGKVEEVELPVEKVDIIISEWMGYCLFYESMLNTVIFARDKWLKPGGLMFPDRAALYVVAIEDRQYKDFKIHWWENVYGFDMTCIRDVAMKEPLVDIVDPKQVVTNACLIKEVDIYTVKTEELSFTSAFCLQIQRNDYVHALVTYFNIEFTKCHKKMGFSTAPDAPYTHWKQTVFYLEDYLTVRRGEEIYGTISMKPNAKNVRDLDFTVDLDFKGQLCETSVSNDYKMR
T1 sequence (O75530 whole entry, the tested form may be a part): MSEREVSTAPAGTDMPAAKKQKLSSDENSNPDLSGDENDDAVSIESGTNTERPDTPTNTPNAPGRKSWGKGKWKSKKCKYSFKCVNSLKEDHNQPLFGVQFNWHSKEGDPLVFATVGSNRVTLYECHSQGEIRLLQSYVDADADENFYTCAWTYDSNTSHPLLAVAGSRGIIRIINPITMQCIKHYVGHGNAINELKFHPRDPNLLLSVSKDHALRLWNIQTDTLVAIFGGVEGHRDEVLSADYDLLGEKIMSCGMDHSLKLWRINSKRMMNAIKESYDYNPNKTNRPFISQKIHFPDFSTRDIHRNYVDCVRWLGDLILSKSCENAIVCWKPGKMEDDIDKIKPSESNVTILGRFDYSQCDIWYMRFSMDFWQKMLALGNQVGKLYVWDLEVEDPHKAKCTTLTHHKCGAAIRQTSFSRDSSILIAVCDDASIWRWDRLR

With `N#Cc1c2c(c3nncn3c1NCc1ccco1)CN(Cc1ccccc1)CC2` [EED162], the IC50 – broadly, the concentration at which inhibition is half-maximal – in experiment [1] was 0.32 µM; in experiment [2] it was more than 100 µM; in experiment [3], more than 100 µM; in experiment [4] it was more than 100 µM; in experiment [5] it was more than 100 µM; in experiment [6], more than 100 µM. For the same compound, the IC50 in experiment [7] and in experiment [8] was more than 100 µM in each case.
Consider `COc1cccc(CC2CC3Cc4c(cccc4OC)CC3N(C)C2)c1` (stereo not drawn) [EED210], for which the “enthalpy change (ITC)” value in experiment [9] was -20.14 ± 5.29 kcal/mol. The “entropy change (ITC)” value in experiment [9] is given as -46.5 cal/mol/deg. The “stoichiometry of binding N (ITC)” value in [9] worked out at 0.78. Also, the IC50 in experiment [2], in [3], in experiment [4], in experiment [5], in experiment [6] and in [7] was more than 100 µM each time. The compound further registered an IC50 in experiment [8] of more than 100 µM.
Turning to `COc1cc(-c2cc3n(c(=N)c2C#N)CCc2cc4c(cc2-3)OCO4)ccc1OC(C)C` [EED396], the half-maximal inhibitory concentration (IC50) in [2], in experiment [3], in experiment [4], in experiment [5], in experiment [6] and in experiment [7] was more than 100 µM each time. In experiment [8], this compound displayed an IC50 of more than 100 µM.
In the case of `Cc1cc(C)n(-c2cc(N3CCc4ccccc4C3)ccc2[N+](=O)[O-])n1` [EED666], the IC50 in experiment [2], in experiment [3], in experiment [4], in experiment [5], in experiment [6] and in experiment [7] was more than 100 µM throughout. Moreover, the IC50 in experiment [8] is more than 100 µM.
For `COc1ccccc1CN1CC(c2cn(C)c3ccccc23)C(N(C)C)C1` (stereo not drawn) [EED709], the half-inhibitory concentration (IC50) in [2], in [3], in experiment [4], in [5], in experiment [6] and in experiment [7] was more than 100 µM throughout. In [8], this compound yielded an IC50 of more than 100 µM.
